The assay has as its system L1210. The experiment in a line: Antitumor activity against mouse L1210 cells at 400 mg/kg, ip. In kind it is functional, organism-based. Further details: dose 400 mg/kg.

Active and inactive are the calls of the source. The rule behind the calls is not given here.

On to `NC(=S)NO`, for which the result was inactive.

The values are drawn from ChEMBL document CHEMBL3272056, “Synthesis of N-hydroxythiourea” (J Med Chem, 1976).
